The source of these data is ChEMBL document CHEMBL4342421, “Current scenario of tetrazole hybrids for antibacterial activity” (Eur J Med Chem, 2019).

Molecules are shown by their SMILES. Values after ≈ are worked out from the molar mass of the structure shown.

Test [1] concerns Candida albicans. Briefly: Antifungal activity against Candida albicans assessed as zone of inhibition at 50 ug/ml. In kind it is functional. Particulars: read-out: IZ.
The test system of test [2] is Pseudomonas aeruginosa. In words: Antimicrobial activity against Pseudomonas aeruginosa assessed as zone of inhibition at 50 ug/ml. Particulars: read-out: IZ. It is filed as functional.
For test [3], the system named is Aspergillus fumigatus. In words: Antifungal activity against Aspergillus fumigatus assessed as zone of inhibition at 50 ug/ml. In kind it is functional. Particulars: read-out: IZ.
Test [4] relates to Bacillus subtilis. Briefly: Antimicrobial activity against Bacillus subtilis assessed as zone of inhibition at 50 ug/ml. It is filed as functional. Particulars: read-out: IZ.
Test [5] concerns Staphylococcus aureus. Briefly: Antimicrobial activity against Staphylococcus aureus assessed as zone of inhibition at 50 ug/ml. The following applies: read-out: IZ. It is filed as functional.
Test [6] has as its system Escherichia coli. Briefly: Antimicrobial activity against Escherichia coli assessed as zone of inhibition at 50 ug/ml. It is filed as functional. Particulars: read-out: IZ.
In test [7] the test system is Salmonella typhimurium. In words: Antimicrobial activity against Salmonella typhimurium. It is filed as functional, Salmonella enterica subsp. enterica serovar Typhimurium. The following applies: Salmonella enterica.
For test [8], the system named is Bacillus subtilis. In words: Antimicrobial activity against Bacillus subtilis. It is filed as functional.
In test [9] the test system is Staphylococcus aureus. In words: Antimicrobial activity against Staphylococcus aureus. It is filed as functional.
Test [10] concerns Candida albicans. In words: Antifungal activity against Candida albicans. It is filed as functional.
The test system of test [11] is Escherichia coli. Briefly: Antimicrobial activity against Escherichia coli. In kind it is functional.
For test [12], the system named is Bacillus cereus. Briefly: Antimicrobial activity against Bacillus cereus assessed as zone of inhibition at 250 ug/ml. In kind it is functional. The following applies: read-out: IZ.
Test [13] concerns Candida albicans. In words: Antifungal activity against Candida albicans assessed as zone of inhibition at 250 ug/ml. In kind it is functional. The following applies: read-out: IZ.
Test [14] has as its system Staphylococcus aureus. Briefly: Antimicrobial activity against Staphylococcus aureus assessed as zone of inhibition at 250 ug/ml. The following applies: read-out: IZ. In kind it is functional.
The subject of test [15] is Pseudomonas aeruginosa. In words: Antimicrobial activity against Pseudomonas aeruginosa assessed as zone of inhibition at 250 ug/ml. It is filed as functional. Particulars: read-out: IZ.
Test [16] deals with Aspergillus niger. In words: Antifungal activity against Aspergillus niger assessed as zone of inhibition at 250 ug/ml. In kind it is functional. The following applies: read-out: IZ.
Test [17] concerns Escherichia coli. Briefly: Antimicrobial activity against Escherichia coli assessed as zone of inhibition at 250 ug/ml. Particulars: read-out: IZ. In kind it is functional.

Regarding `c1ccc(-n2nnnc2-c2cccnc2)cc1`, the zone of inhibition at 50 µg/mL in test [1], in test [2], in test [3], in test [4], in test [5] and in test [6] was 10 to 22 mm each time.
As to `Cc1ccc(-n2nnnc2-c2cccnc2)cc1`, the zone of inhibition at 50 µg/mL in test [1], in test [2], in [3], in test [4], in test [5] and in test [6] was 10 to 22 mm each time.
In the case of `COc1ccc(-n2nnnc2-c2cccnc2)cc1`, the zone of inhibition at 50 µg/mL in [1], in test [2], in test [3], in [4], in test [5] and in test [6] was 10 to 22 mm each time.
As to `c1ccc(-c2nnnn2-c2ccccn2)cc1`, the zone of inhibition at 50 µg/mL in test [1], in test [2], in test [3], in test [4], in test [5] and in [6] was 10 to 24 mm each time.
For `Cc1ccc(-c2nnnn2-c2ccccn2)cc1`, the zone of inhibition at 50 µg/mL in test [1], in test [2], in test [3], in [4], in [5] and in [6] was 10 to 24 mm in each case.
As to `O=[N+]([O-])c1ccc(-n2nnnc2-c2cccnc2)cc1`, the zone of inhibition at 50 µg/mL in [1], in [2], in [3], in test [4], in [5] and in test [6] was 10 to 22 mm each time.
As for `Clc1cccc(-n2nnnc2-c2cccnc2)c1Cl`, the zone of inhibition at 50 µg/mL in test [1], in [2], in [3], in test [4], in test [5] and in test [6] was 10 to 22 mm in each case.
One may read the MIC as the lowest concentration found to suppress growth. On to `CCCCCC(O)C(C(CCCCCCC(=O)OCCn1c([N+](=O)[O-])cnc1C)n1nnnc1C)n1nnnc1C` (configuration not stated), for which the MIC in [7] was 34 µg/mL (≈ 59.1 µM); in test [8], 24 to 76 µg/mL (≈ 41.7 to 132 µM); in [9] it was 72 µg/mL (≈ 125 µM); in [10], 124 µg/mL (≈ 215 µM); in test [11], 26 µg/mL (≈ 45.2 µM).
With `O=[N+]([O-])c1cc(-c2nnnn2-c2ccccn2)cc([N+](=O)[O-])c1`, the zone of inhibition at 50 µg/mL in test [1], in test [2], in test [3], in test [4], in test [5] and in [6] was 10 to 24 mm in each case.
Take `Brc1ccc(-n2nnnc2-c2cccnc2)cc1`: the zone of inhibition at 50 µg/mL in [1], in test [2], in test [3], in test [4], in test [5] and in test [6] was 10 to 22 mm each time.
Consider `Clc1ccc(-n2nnnc2-c2cccnc2)cc1`, for which the zone of inhibition at 50 µg/mL in test [1], in [2], in [3], in test [4], in [5] and in [6] was 10 to 22 mm in each case.
For the compound `Clc1ccccc1-c1nnnn1-c1ccccn1`, the zone of inhibition at 50 µg/mL in [1], in test [2], in test [3], in test [4], in test [5] and in [6] was 10 to 24 mm in each case.
With `O=[N+]([O-])c1ccccc1-n1nnnc1-c1cccnc1`, the zone of inhibition at 50 µg/mL in test [1], in test [2], in [3], in [4], in test [5] and in [6] was 10 to 22 mm in each case.
As for `CC(=O)N1N=C(Cn2cc(-c3nn(-c4ccncc4)cc3-c3nnnn3-c3ccc(Cl)cc3)c3cc(Cl)ccc32)OC1(C)c1ccc(C(F)(F)F)cc1` (configuration not stated), the zone of inhibition at 250 µg/mL in test [12], in test [13], in [14], in test [15], in [16] and in [17] was 8 to 20 mm each time.
With `COc1ccc(-c2nnnn2-c2ccccn2)cc1`, the zone of inhibition at 50 µg/mL in [1], in [2], in test [3], in test [4], in [5] and in [6] was 16 to 24 mm throughout.
As for `CC(=O)N1N=C(Cn2cc(-c3nn(-c4ccncc4)cc3-c3nnnn3-c3ccc(Br)cc3)c3cc(Cl)ccc32)OC1(C)c1ccc(C(F)(F)F)cc1` (configuration not stated), the zone of inhibition at 250 µg/mL in test [12], in test [13], in [14], in test [15], in [16] and in test [17] was 8 to 20 mm throughout.
Take `Clc1ccc(-c2nnnn2-c2ccccn2)cc1`: the zone of inhibition at 50 µg/mL in test [1], in test [2], in test [3], in test [4], in [5] and in test [6] was 10 to 24 mm throughout.
`Clc1ccccc1-n1nnnc1-c1cccnc1`: the zone of inhibition at 50 µg/mL in test [1], in [2], in test [3], in test [4], in [5] and in test [6] was 10 to 22 mm throughout.
Take `CC(=O)N1N=C(Cn2cc(-c3nn(-c4ccncc4)cc3-c3nnnn3-c3ccc(C(F)(F)F)cc3)c3cc(Cl)ccc32)OC1(C)c1ccc(C(F)(F)F)cc1` (configuration not stated): the zone of inhibition at 250 µg/mL in test [12], in test [13], in test [14], in test [15], in test [16] and in test [17] was 8 to 20 mm throughout.
In the case of `CC(=O)N1N=C(Cn2cc(-c3nn(-c4ccncc4)cc3-c3nnnn3-c3ccc(C)cc3)c3cc(Cl)ccc32)OC1(C)c1ccc(C(F)(F)F)cc1` (configuration not stated), the zone of inhibition at 250 µg/mL in test [12], in test [13], in [14], in [15], in [16] and in test [17] was 8 to 20 mm throughout.
`Brc1cccc(-c2nnnn2-c2ccccn2)c1`: the zone of inhibition at 50 µg/mL in test [1], in [2], in [3], in test [4], in [5] and in test [6] was 10 to 24 mm each time.
Turning to `COc1ccccc1-n1nnnc1-c1cccnc1`, the zone of inhibition at 50 µg/mL in test [1], in [2], in [3], in [4], in test [5] and in [6] was 10 to 22 mm each time.
Take `CC(=O)N1N=C(Cn2cc(-c3nn(-c4ccncc4)cc3-c3nnnn3-c3ccc([N+](=O)[O-])cc3)c3cc(Cl)ccc32)OC1(C)c1ccc(C(F)(F)F)cc1` (configuration not stated): the zone of inhibition at 250 µg/mL in test [12], in [13], in [14], in test [15], in [16] and in test [17] was 8 to 20 mm each time.
`COc1ccc(-n2nnnc2-c2cn(-c3ccncc3)nc2-c2cn(CC3=NN(C(C)=O)C(C)(c4ccc(C(F)(F)F)cc4)O3)c3ccc(Cl)cc23)cc1` (configuration not stated): the zone of inhibition at 250 µg/mL in test [12], in test [13], in [14], in [15], in test [16] and in [17] was 8 to 20 mm throughout.
For `Clc1cccc(-c2nnnn2-c2ccccn2)c1Cl`, the zone of inhibition at 50 µg/mL in [1], in [2], in test [3], in [4], in [5] and in [6] was 10 to 24 mm each time.
With `O=C(N[C@H](CO)[C@H](O)c1ccc([N+](=O)[O-])cc1)C(Cl)Cl` [CHLORAMPHENICOL], the MIC in test [7], in test [8] and in test [11] was 30 µg/mL (≈ 92.8 µM) throughout.
